For 25 compounds, IC50 results are on record in US9873709B2 (priority 2013, dated 2018).

The subject of this experiment is JAK1-dependent STAT6 phosphorylation downstream of IL-13 stimulation in TF-1 human erythroleukemia cells. Put plainly: cells. The note with it: TF-1, read-out: IL-13-pSTAT6 IC50.
For `CCOC(=O)N1CC=C(c2cccn3nc(Nc4ccc(C(=O)NCc5cccnc5C)cc4)nc23)CC1` [Example 2-177, ethyl 4-[2-[4-[(2-methyl-3-pyridyl)methylcarbamoyl]anilino]-[1,2,4]triazolo[1,5-a]pyridin-8-yl]-3,6-dihydro-2H-pyridine-1-carboxylate], the IC50 was 15.4 nM.

Regarding `CCOC(=O)N1CC=C(c2cccn3nc(Nc4ccc(C(=O)NCc5cncc(C)c5)cc4)nc23)CC1` [Example 2-178, ethyl 4-[2-[4-[(5-methyl-3-pyridyl)methylcarbamoyl]anilino]-[1,2,4]triazolo[1,5-a]pyridin-8-yl]-3,6-dihydro-2H-pyridine-1-carboxylate], the IC50 was 32.6 nM. The figure for `CCOC(=O)N1CC=C(c2cccn3nc(Nc4ccc(C(=O)N5CC6(CCCNC6)C5)cc4)nc23)CC1` [Example 2-185, ethyl 4-[2-[4-(2,8-diazaspiro[3,5]nonane-2-carbonyl)anilino]-[l,2,4]triazolo[l,5-a]pyridin-8-yl]-3,6-dihydro-2H-pyridine-1-carboxylate] is 29.9 nM.

In the case of `O=C(CCC(F)(F)F)N1CC=C(c2cccn3nc(Nc4ccc(C(=O)N5CC6(CCCNC6)C5)cc4)nc23)CC1` [Example 2-186, 1-[4-[2-[4-(2,8-diazaspiro[3.5]nonane-2-carbonyl)anilino]-[1,2,4]triazolo[1,5-a]pyridin-8-yl]-3,6-dihydro-2H-pyridin-1-yl]-4,4,4-trifluoro-butan-1-one], the concentration for half-maximal inhibition (IC50) came out at 23.3 nM. On to `O=C(CCC(F)(F)F)N1CC=C(c2cccn3nc(Nc4ccc(C(=O)N5CCC6(CCNCC6)C5)cc4)nc23)CC1` [Example 2-187, 1-[4-[2-[4-(2,8-diazaspiro[4.5]decane-2-carbonyl)anilino]-[1,2,4]triazolo[1,5-a]pyridin-8-yl]-3,6-dihydro-2H-pyridin-1-yl]-4,4,4-trifluoro-butan-1-one], for which the IC50 amounted to 652 nM.

As to `O=C(NC1COC2(CCNCC2)C1)c1ccc(Nc2nc3c(C4=CCN(C(=O)CCC(F)(F)F)CC4)cccn3n2)cc1` (stereo not shown) [Example 2-188, N-(1-oxa-8-azaspiro[4.5]decan-3-yl)-4-[[8-[1-(4,4,4-trifluorobutanoyl)-3,6-dihydro-2H-pyridin-4-yl]-[1,2,4]triazolo[1,5-a]pyridin-2-yl]amino]benzamide], the IC50 worked out at 239 nM.

On to `O=C(NCC1CCC2(CCNCC2)CO1)c1ccc(Nc2nc3c(C4=CCN(C(=O)CCC(F)(F)F)CC4)cccn3n2)cc1` (stereo not shown) [Example 2-189, N-(2-oxa-9-azaspiro[5.5]undecan-3-ylmethyl)-4-[[8-[1-(4,4,4-trifluorobutanoyl)-3,6-dihydro-2H-pyridin-4-yl]-[1,2,4]triazolo[1,5-a]pyridin-2-yl]amino]benzamide], for which the IC50 was 110 nM.

For `O=C(CCC(F)(F)F)N1CC=C(c2cccn3nc(Nc4ccc(C(=O)N5CCCC6(CNCCO6)C5)cc4)nc23)CC1` (stereo not shown) [Example 2-190, 4,4,4-trifluoro-1-[4-[2-[4-(1-oxa-4,8-diazaspiro[5.5]undecane-8-carbonyl)anilino]-[1,2,4]triazolo[1,5-a]pyridin-8-yl]-3,6-dihydro-2H-pyridin-1-yl]butan-1-one], the IC50 is 40.9 nM.

Regarding `O=C(CCC(F)(F)F)N1CC=C(c2cccn3nc(Nc4ccc(C(=O)N5CCC6(CCCNC6)CC5)cc4)nc23)CC1` [Example 2-191, 1-[4-[2-[4-(2,9-diazaspiro[5.5]undecane-9-carbonyl)anilino]-[1,2,4]triazolo[1,5-a]pyridin-8-yl]-3,6-dihydro-2H-pyridin-1-yl]-4,4,4-trifluoro-butan-1-one], the IC50 was 63.7 nM. On to `O=C(NCC1CCCNC1)c1ccc(Nc2nc3c(C4=CCN(C(=O)CCC(F)(F)F)CC4)cccn3n2)cc1` (stereo not shown) [Example 2-192, N-(3-piperidylmethyl)-4-[[8-[1-(4,4,4-trifluorobutanoyl)-3,6-dihydro-2H-pyridin-4-yl]-[1,2,4]triazolo[1,5-a]pyridin-2-yl]amino]benzamide], for which the IC50 was 213 nM. Under `O=C(NCCC1CCCNC1)c1ccc(Nc2nc3c(C4=CCN(C(=O)CCC(F)(F)F)CC4)cccn3n2)cc1` (stereo not shown) [Example 2-193, N-[2-(3-piperidyl)ethyl]-4-[[8-[1-(4,4,4-trifluorobutanoyl)-3,6-dihydro-2H-pyridin-4-yl]-[1,2,4]triazolo[1,5-a]pyridin-2-yl]amino]benzamide] stands 278 nM; under `NCCNC(=O)c1ccc(Nc2nc3c(C4=CCN(C(=O)CCC(F)(F)F)CC4)cccn3n2)cc1` [Example 2-194, N-(2-aminoethyl)-4-[[8-[1-(4,4,4-trifluorobutanoyl)-3,6-dihydro-2H-pyridin-4-yl]-[1,2,4]triazolo[1,5-a]pyridin-2-yl]amino]benzamide], 94.2 nM. The figure for `O=C(CCC(F)(F)F)N1CC=C(c2cccn3nc(Nc4ccc(C(=O)N5CCCNCC5)cc4)nc23)CC1` [Example 2-195, 1-[4-[2-[4-(1,4-diazepane-1-carbonyl)anilino]-[1,2,4]triazolo[1,5-a]pyridin-8-yl]-3,6-dihydro-2H-pyridin-1-yl]-4,4,4-trifluoro-butan-1-one] is 163 nM; for `CC1CN(C(=O)c2ccc(Nc3nc4c(C5=CCN(C(=O)CCC(F)(F)F)CC5)cccn4n3)cc2)CCN1` (stereo not shown) [Example 2-196, 4,4,4-trifluoro-1-[4-[2-[4-(3-methylpiperazine-1-carbonyl)anilino]-[1,2,4]triazolo[1,5-a]pyridin-8-yl]-3,6-dihydro-2H-pyridin-1-yl]butan-1-one] it is 29.9 nM; for `O=C(CCC(F)(F)F)N1CC=C(c2cccn3nc(Nc4ccc(C(=O)N5CCC6(CCN6)CC5)cc4)nc23)CC1` [Example 2-197, 1-[4-[2-[4-(1,7-diazaspiro[3.5]nonane-7-carbonyl)anilino]-[1,2,4]triazolo[1,5-a]pyridin-8-yl]-3,6-dihydro-2H-pyridin-1-yl]-4,4,4-trifluoro-butan-1-one] it is 295 nM. As to `O=C(CCC(F)(F)F)N1CC=C(c2cccn3nc(Nc4ccc(C(=O)N5CCC6(CCCN6)CC5)cc4)nc23)CC1` [Example 2-198, 1-[4-[2-[4-(1,8-diazaspiro[4.5]decane-8-carbonyl)anilino]-[1,2,4]triazolo[1,5-a]pyridin-8-yl]-3,6-dihydro-2H-pyridin-1-yl]-4,4,4-trifluoro-butan-1-one], the IC50 amounted to 53.9 nM.

For `CN(Cc1ccccn1)C(=O)c1ccc(Nc2nc3c(C4=CCN(C(=O)CCC(F)(F)F)CC4)cccn3n2)cc1` [Example 2-199, N-methyl-N-(2-pyridylmethyl)-4-[[8-[1-(4,4,4-trifluorobulanoyl)-3,6-dihydro-2H-pyridin-4-yl]-[1,2,4]triazolo[1,5-a]pyridin-2-yl]amino]benzamide], the IC50 came out at 4.2 nM. The figure for `O=C(CCC(F)(F)F)N1CC=C(c2cccn3nc(Nc4ccc(C(=O)N5CCN6CCCC6C5)cc4)nc23)CC1` (stereo not shown) [Example 2-200, 1-[4-[2-[4-(3,4,6,7,8,8a-hexahydro-1H-pyrrolo[1,2-a]pyrazine-2-carbonyl)anilino]-[1,2,4]triazolo[1,5-a]pyridin-8-yl]-3,6-dihydro-2H-pyridin-1-yl]-4,4,4-trifluoro-butan-1-one] is 4.1 nM; for `CN1CC2CC(C1)N(C(=O)c1ccc(Nc3nc4c(C5=CCN(C(=O)CCC(F)(F)F)CC5)cccn4n3)cc1)C2` (stereo not shown) [Example 2-201, 4,4,4-trifluoro-1-[4-[2-[4-(3-methyl-3,6-diazabicyclo[3.2.1]octane-6-carbonyl)anilino]-[1,2,4]triazolo[1,5-a]pyridin-8-yl]-3,6-dihydro-2H-pyridin-1-yl]butan-1-one] it is 6 nM. The figure for `O=C(CCC(F)(F)F)N1CC=C(c2cccn3nc(Nc4ccc(C(=O)N5CCN(C6CC6)CC5)cc4)nc23)CC1` [Example 2-202, 1-[4-[2-[4-(4-cyclopropylpiperazine-1-carbonyl)anilino]-[1,2,4]triazolo[1,5-a]pyridin-8-yl]-3,6-dihydro-2H-pyridin-1-yl]-4,4,4-trifluoro-butan-1-one] is 11.5 nM; for `Cn1ccnc1CN1CCN(C(=O)c2ccc(Nc3nc4c(C5=CCN(C(=O)CCC(F)(F)F)CC5)cccn4n3)cc2)CC1` [Example 2-203, 4,4,4-trifluoro-1-[4-[2-[4-[4-[(1-methylimidazol-2-yl)methyl]piperazine-1-carbonyl]anilino]-[1,2,4]triazolo[1,5-a]pyridin-8-yl]-3,6-dihydro-2H-pyridin-1-yl]butan-1-one] it is 30.1 nM. Take `CC(=O)N1CC2(C1)CN(C(=O)c1ccc(Nc3nc4c(C5=CCN(C(=O)CCC(F)(F)F)CC5)cccn4n3)cc1)C2` [Example 2-204, 1-[4-[2-[4-(6-acetyl-2,6-diazaspiro[3.3]heptane-2-carbonyl)anilino]-[1,2,4]triazolo[1,5-a]pyridin-8-yl]-3,6-dihydro-2H-pyridin-1-yl]-4,4,4-trifluoro-butan-1-one]: the IC50 is 89.7 nM. Under `CN1CC2CN(C(=O)c3ccc(Nc4nc5c(C6=CCN(C(=O)CCC(F)(F)F)CC6)cccn5n4)cc3)CC(C1)O2` [Example 2-205, 4,4,4-trifluoro-1-[4-[2-[4-(7-methyl-9-oxa-3,7-diazabicyclo[3.3.1]nonane-3-carbonyl)anilino]-[1,2,4]triazolo[1,5-a]pyridin-8-yl]-3,6-dihydro-2H-pyridin-1-yl]butan-1-one] stands 10 nM. The figure for `Cc1cncc(CNC(=O)c2ccc(Nc3nc4c(C5=CCN(C(=O)CCC(F)(F)F)CC5)cccn4n3)cc2)c1` [Example 2-206, N-[(5-methyl-3-pyridyl)methyl]-4-[[8-[1-(4,4,4-trifluorobutanoyl)-3,6-dihydro-2H-pyridin-4-yl]-[1,2,4]triazolo[1,5-a]pyridin-2-yl]amino]benzamide] is 3.4 nM; for `NCC1CN(C(=O)c2ccc(Nc3nc4c(C5=CCN(C(=O)CCC(F)(F)F)CC5)cccn4n3)cc2)C1` [Example 2-207, 1-[4-[2-[4-[3-(aminomethyl)azetidine-1-carbonyl]anilino]-[1,2,4]triazolo[1,5-a]pyridin-8-yl]-3,6-dihydro-2H-pyridin-1-yl]-4,4,4-trifluoro-butan-1-one] it is 141 nM.
